Some test systems named below: U-251; A549; OVCAR-8; HCT-116; K562; NCI-H226; HCC 2998; KM-20L2; HCT-15; NCI-H460; SK-MEL-5; SK-MEL-2; SF-268; SK-OV-3; TK-10; HOP-62; MDA-MB-435; BT-549; MDA-N; PC-3.
What all share (assay): growth of human tumour cells (NCI), 48 h

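Method: 48-hour compound exposure of cells in 96-well plates, five concentrations, linear interpolation of endpoints. GI50 is the concentration that inhibits growth by half.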 Active and inactive are the calls of the source. No stated cut-off is given here; in the data, active = GI50 up to about 1.1 µM and inactive = higher.

Regarding `C/C(=N\NS(=O)(=O)c1ccc([N+](=O)[O-])cc1)c1ccc[n+]([O-])n1`, the GI50 in the assay on U-251 is 1.86 µM (inactive); in the assay with A549, 2.19 µM (inactive); with OVCAR-8, 1.76 µM (inactive); with HCT-116 it was 1.72 µM (inactive); with K562, 3.33 µM (inactive); in the assay with NCI-H226, 1.77 µM (inactive). In addition, the GI50 in the assay with HCC 2998 is 9.46 µM (inactive); in the assay with KM-20L2, 4.48 µM (inactive); in the assay with HCT-15, 5.16 µM; in the assay on NCI-H460, 0.776 µM (active); in the assay with SK-MEL-5 it was 2.35 µM (inactive); in the assay with SK-MEL-2, 1.92 µM (inactive). The GI50 with SF-268 is 2.33 µM (inactive); in the assay on SK-OV-3, 2.64 µM (inactive); in the assay on TK-10 it was 11.6 µM (inactive); in the assay on HOP-62, 2.09 µM (inactive).

For the molecule `O=C1c2ccccc2C(=O)c2c1oc1cc(O)c(Cl)cc21`, the GI50 is 1.81 µM (inactive) in the assay with MDA-MB-435; 5.36 µM (inactive) with U-251; 3.01 µM (inactive) with A549; 7.38 µM (inactive) in the assay with OVCAR-8; 5.27 µM (inactive) in the assay with HCT-116; 4.97 µM (inactive) in the assay on BT-549. Moreover, the GI50 in the assay on K562 is 13.5 µM (inactive); with NCI-H226, 14 µM (inactive); in the assay with HCC 2998, 4.62 µM (inactive); in the assay with KM-20L2, 2.67 µM (inactive); in the assay with HCT-15, 4.66 µM; in the assay on MDA-N it was 1.75 µM (inactive). Further, the GI50 in the assay on NCI-H460 is 3.04 µM (inactive); in the assay on SK-MEL-5, 0.299 µM (active); in the assay on SK-MEL-2, 1.99 µM (inactive); in the assay on SF-268, 10.8 µM (inactive); in the assay on PC-3 it was 10.4 µM (inactive); in the assay on SK-OV-3 it was 17.2 µM (inactive). Further, the GI50 in the assay on TK-10 is 20.9 µM (inactive); in the assay with HOP-62 it was 10.7 µM (inactive).

As to `C[Si](C)(C)c1ccc(CC2(Cc3ccc([Si](C)(C)C)cc3)CCNC2)cc1`, the GI50 in the assay with U-251 is 1.66 µM (inactive); in the assay on A549, 2.29 µM (inactive); in the assay on OVCAR-8, 1.85 µM (inactive); with HCT-116, 1.69 µM (inactive); in the assay on K562 it was 3.62 µM (inactive); in the assay on NCI-H226 it was 1.88 µM (inactive). The GI50 was 2.11 µM (inactive) in the assay with HCC 2998; 1.9 µM (inactive) with KM-20L2; 2.16 µM in the assay on HCT-15; 2.04 µM (inactive) in the assay on NCI-H460; 1.9 µM (inactive) in the assay with SK-MEL-5; 1.76 µM (inactive) in the assay on SK-MEL-2. Moreover, the GI50 in the assay on SF-268 was 2.22 µM (inactive); in the assay on SK-OV-3, 1.63 µM (inactive); in the assay on TK-10 it was 21 µM (inactive); in the assay on HOP-62 it was 2.94 µM (inactive).

On to `CN(C)C(=O)OC(Cn1cncn1)c1ccc(Cl)cc1Cl` (stereo not drawn), for which the GI50 with U-251, in the assay with A549, with OVCAR-8, in the assay on HCT-116, in the assay on K562 and in the assay on NCI-H226 was > 100 µM (inactive) in each case. Besides, the GI50 in the assay with HCC 2998 was > 100 µM (inactive); in the assay on KM-20L2, > 100 µM (inactive); with HCT-15 it was > 100 µM; in the assay on NCI-H460, > 100 µM (inactive); in the assay with SK-MEL-5, > 100 µM (inactive); with SK-MEL-2, > 100 µM (inactive). For the same molecule, the GI50 in the assay with SF-268, in the assay on SK-OV-3, in the assay on TK-10 and in the assay on HOP-62 was > 100 µM (inactive) in each case.

As for `COC1/C=C/O[C@@]2(C)Oc3c(C)c(O)c4c(O)c(cc(O)c4c3C2=O)NC(=O)/C(C)=C\C=C\[C@H](C)C(O)[C@@H](C)[C@@H](O)[C@@H](C)[C@H](OC(C)=O)[C@@H]1C` (stereo partly drawn), the GI50 with MDA-MB-435 is 19.9 µM (inactive); in the assay on U-251, 44.2 µM (inactive); in the assay with OVCAR-8, 18.7 µM (inactive); in the assay on BT-549, 18.5 µM (inactive); in the assay on K562, 9.89 µM (inactive); with HCC 2998, 18.8 µM (inactive). The GI50 is 13.3 µM (inactive) in the assay with KM-20L2; 18.6 µM in the assay with HCT-15; 14.5 µM (inactive) with MDA-N; 32.1 µM (inactive) in the assay on SK-MEL-5; 13.8 µM (inactive) with SK-MEL-2; 24.5 µM (inactive) with SF-268. The GI50 is 16 µM (inactive) in the assay on PC-3, 110 µM (inactive) with SK-OV-3, 20.1 µM (inactive) with TK-10 and 117 µM (inactive) in the assay with HOP-62.

Regarding `NC1N=Nc2ccccc21` (stereo not drawn), the GI50 in the assay on U-251, with A549, with OVCAR-8, in the assay on HCT-116, in the assay with K562 and in the assay on NCI-H226 was > 100 µM (inactive) each time. Moreover, the GI50 with HCC 2998 was > 100 µM (inactive); with KM-20L2, > 100 µM (inactive); in the assay on HCT-15, > 100 µM; in the assay with NCI-H460, > 100 µM (inactive); with SK-MEL-2, > 100 µM (inactive); with SF-268 it was > 100 µM (inactive). Moreover, the GI50 in the assay on SK-OV-3, in the assay on TK-10 and in the assay with HOP-62 was > 100 µM (inactive) in each case.

Take `O=C1/C(=C/c2ccccc2)CN(C(=O)OCc2ccccc2)C/C1=C\c1ccccc1`: the GI50 in the assay on U-251 is 4.51 µM (inactive); in the assay on A549 it was 28.1 µM (inactive); in the assay with OVCAR-8, 13.1 µM (inactive); in the assay with HCT-116, 0.345 µM (active); in the assay on BT-549, 13.2 µM (inactive); in the assay on K562, 1.88 µM (inactive). Besides, the GI50 was 26.2 µM (inactive) in the assay with NCI-H226; 7.06 µM (inactive) in the assay on HCC 2998; 11.1 µM (inactive) with KM-20L2; 10.9 µM in the assay with HCT-15; 3.06 µM (inactive) in the assay on MDA-N; 21.4 µM (inactive) in the assay with NCI-H460. Moreover, the GI50 is 16.8 µM (inactive) in the assay with SK-MEL-5; 17.9 µM (inactive) with SK-MEL-2; 13.8 µM (inactive) with SF-268; 15 µM (inactive) in the assay with PC-3; 24.4 µM (inactive) with SK-OV-3; 27.5 µM (inactive) in the assay with TK-10. Further, the GI50 in the assay on HOP-62 was 32.1 µM (inactive).

For `O=C1C(Cl)C(c2ccc(O)cc2)N1n1cnc2ccccc2c1=O` (stereo not drawn), the GI50 was 45.4 µM (inactive) in the assay on U-251; > 100 µM (inactive) with A549; 16.1 µM (inactive) in the assay on OVCAR-8; 17.1 µM (inactive) in the assay with HCT-116; 31.3 µM (inactive) with K562; > 100 µM (inactive) with NCI-H226. Moreover, the GI50 in the assay on HCC 2998 is 61.8 µM (inactive); in the assay with KM-20L2 it was 58.9 µM (inactive); in the assay with HCT-15, 27.4 µM; with NCI-H460 it was 33.1 µM (inactive); in the assay with SK-MEL-5 it was 52.8 µM (inactive); in the assay with SK-MEL-2, 26.9 µM (inactive). Also, the GI50 with SF-268 is 45.6 µM (inactive); in the assay on SK-OV-3, > 100 µM (inactive); in the assay on TK-10, 40.6 µM (inactive); with HOP-62, > 100 µM (inactive).

As to `CCOC(=O)/N=C(\N)SCc1ccccc1`, the GI50 in the assay on U-251 is > 100 µM (inactive); with A549, > 100 µM (inactive); in the assay with OVCAR-8, > 100 µM (inactive); in the assay with HCT-116, > 100 µM (inactive); in the assay with K562, > 100 µM (inactive); in the assay with NCI-H226, 7.33 µM (inactive). Also, the GI50 was > 100 µM (inactive) with HCC 2998; > 100 µM (inactive) in the assay with KM-20L2; > 100 µM in the assay with HCT-15; > 100 µM (inactive) in the assay on NCI-H460; > 100 µM (inactive) with SK-MEL-5; 44.6 µM (inactive) with SK-MEL-2. Also, the GI50 with SF-268, in the assay with SK-OV-3, in the assay with TK-10 and in the assay with HOP-62 was > 100 µM (inactive) throughout.

As to `O=S(=O)(c1ccccc1)C1CN2OC1(S(=O)(=O)c1ccccc1)CC2c1ccc(Br)cc1` (stereo not drawn), the GI50 in the assay with U-251 is 54.2 µM (inactive); in the assay on A549, > 100 µM (inactive); in the assay with OVCAR-8, > 100 µM (inactive); with HCT-116, > 100 µM (inactive); in the assay with K562, > 100 µM (inactive); with NCI-H226 it was > 100 µM (inactive). Also, the GI50 with HCC 2998 was > 100 µM (inactive); in the assay with KM-20L2, > 100 µM (inactive); in the assay on HCT-15, > 100 µM; in the assay with NCI-H460 it was > 100 µM (inactive); in the assay with SK-MEL-5 it was 90.6 µM (inactive); with SK-MEL-2, > 100 µM (inactive). Moreover, the GI50 in the assay on SF-268 is 14.9 µM (inactive); in the assay with SK-OV-3, > 100 µM (inactive); in the assay on TK-10, 59 µM (inactive); with HOP-62, 34.3 µM (inactive).

Regarding `CC(C)/C=C1\CCC(CN2CCOCC2)C1=O` (stereo not drawn), the GI50 with U-251 is > 42.4 µM (inactive); with A549 it was 26.3 µM (inactive); in the assay with OVCAR-8, 11.1 µM (inactive); with HCT-116, 5.35 µM (inactive); with K562, 2.56 µM (inactive); with NCI-H226, 30.5 µM (inactive). In addition, the GI50 in the assay on HCC 2998 was 20.2 µM (inactive); with KM-20L2, 20.1 µM (inactive); in the assay with HCT-15, 5.85 µM; in the assay on NCI-H460 it was 28.1 µM (inactive); in the assay on SK-MEL-5, 18.6 µM (inactive); in the assay on SK-MEL-2, 17.7 µM (inactive). Moreover, the GI50 in the assay with SF-268 is 22.9 µM (inactive); in the assay with SK-OV-3 it was > 100 µM (inactive); in the assay on TK-10, 12.9 µM (inactive); in the assay on HOP-62, > 100 µM (inactive).

For the molecule `NC(=O)N1N=C2c3ccccc3CC[C@@H]2C1c1ccccc1` (stereo partly drawn), the GI50 was > 100 µM (inactive) in the assay with U-251; > 100 µM (inactive) in the assay on A549; > 100 µM (inactive) in the assay with OVCAR-8; > 100 µM (inactive) in the assay on HCT-116; 61.4 µM (inactive) in the assay with K562; > 100 µM (inactive) in the assay on NCI-H226. Moreover, the GI50 was > 100 µM (inactive) in the assay on HCC 2998; > 100 µM (inactive) in the assay on KM-20L2; > 100 µM in the assay with HCT-15; > 100 µM (inactive) in the assay on NCI-H460; 88.7 µM (inactive) with SK-MEL-5; > 100 µM (inactive) with SK-MEL-2. Moreover, the GI50 in the assay on SF-268, with SK-OV-3, in the assay with TK-10 and in the assay on HOP-62 was > 100 µM (inactive) in each case.
